Measured values taken from patent US7601834B2, “Compositions and methods of reducing side effects and toxicity of methotrexate when given as orotate derivatives” (SavviPharm Inc, priority 2005, dated 2009).
Read-outs that look alike come from different tables or passages of the source.

Key:
[1] = Pharmacokinetic analysis and oral bioavailability in rats; format: in vivo, male Spagrue-Dawley rats; details: rat; for AUC: estimated for infinity; for half-life: read-out: Elim Half-Life (converted)
Description: A PK study was done in rats to determine the PK profile and oral bioavailability of methotrexate and compared this to the orotate salt of methotrexate. This was done in male Spagrue-Dawley rats. This compound was administered intravenously (IV; 10 mg/kg; for methotrexate and 15.7 mg/kg for methotrexate orotate 1 mL/kg; vehicle 1% NaHCO3 in 0.9% saline) or via oral gavage (PO; 100 mg/kg methotrexate; 157 mg/kg methotrexate orotate; vehicle 1% NaHCO3 in 0.9% saline) and the plasma levels of compound in the plasma were determined at specified times. By calculating the ratio of the area under the curve for the compound concentrations (estimated for infinity as is typically done) for PO vs IV, percent oral bioavailability can be determined. Of course normalization for the different doses given IV vs PO was taken into account for determination of oral bioavailability.

[2] = test system: DU-145 human prostate tumor xenografts
Description: The purpose of the experiment was to evaluate the antitumor efficacy of methotrexate (MTX) and its orotate derivative (MTX orotate) against subcutaneously (SC) implanted DU=145 human prostate tumor xenografts in male athymic NCr-nu/nu mice.
Drug formulation—2.7 mg/mL solution of MTX (Sigma-Aldrich, catalog no. M9929, lot no. 114K1572 used on days 15 and 19, and catalog no. A6770, lot no. 21H0324 used on days 19, 23 and 35) was formulated fresh on each day of treatment in 2% sodium bicarbonate in water for injection (WFI). The 2.7 mg/mL solution was diluted with sodium bicarbonate in WFI to 1.8 and 1.2 mg/mL.
A 4.25 mg/mL solution of MTX orotate was formulated fresh on each day of treatment in 2% bicarbonate in WFI to 2.83 and 1.89 mg/mL. Control group was treated with 2% sodium bicarbonate in WFI. Both compounds and the vehicle were administered to mice by exact individual animal's body weight on each day of treatment with the injection volume being 0.1 mL/10 g of body weight.
Seven groups of 10 mice per group were injected intraperitoneally (ip) once every four days for a total of 3 injections (q4d×3, Days 15, 19, 23 and 35) as follows: Group 1—2% sodium bicarbonate, Groups 2, 3 and 4 with MTX at 27, 18, and 12 mg/kg/dose, respectively. Groups 5, 6, and 7 were treated with MTX orotate at dosages 42.5, 28.3 and 18.9 mg/kg/dose respectively (based on MW of MTX=454.4 and MW of MTX orotate=714.7).
Tumors were measured and volume determined using formula L×W^2/2=mm^3; and weight calculated assuming 1 mm^3=1 mg. The study was terminated 47 days after tumor implantation

[3] = in vivo; cited from earlier work
[4] = IV, 15.7 mg/kg methotrexate orotate
[5] = PO, 157 mg/kg methotrexate orotate
[6] = male, Sprague-Dawley, plasma, IV, 10 mg/kg methotrexate
[7] = male, Sprague-Dawley, plasma, PO, 100 mg/kg methotrexate

SMILES: CN(Cc1cnc2nc(N)nc(N)c2n1)c1ccc(C(=O)NC(CCC(=O)O)C(=O)[O-])cc1.O=C(O)c1cc(=O)[nH]c(=O)[nH]1.[Na+] (stereo not drawn) [Methotrexate Orotate, sodium methotrexate orotate]
- Apparent volume of distribution and plasma clearance rate relative to methotrexate ([1]; IV): higher
- Area under the curve (AUC) relative to methotrexate ([1]; IV): slightly lower
- Cl [1, 4]: 263.08 ± 17.08 mL/min/kg
- Cmax plasma [1, 4]: 2843 ± 121 ng/mL
- Elim Half-Life [1, 4]: 28.2 ± 0 min
- Tmax [1, 4]: 6 ± 0 min
- Vd [1, 4]: 10.804 ± 0.733 L/kg
- AUC [1, 4]: 792 ± 62 ng·mL·h
- Elimination half-life relative to methotrexate ([1]; PO): shorter
- Rate of getting into the plasma relative to methotrexate ([1]; PO): somewhat slower
- % bioavailability (oral) ([1]; PO 157 mg/kg vs IV 15.7 mg/kg methotrexate orotate, dose-normalized AUC ratio): 14%
- Cl [1, 5]: 3233.05 ± 518.18 mL/min/kg
- Cmax plasma [1, 5]: 59 ± 20 ng/mL
- Elim Half-Life [1, 5]: 1060 ± 480 min
- Tmax [1, 5]: 96 ± 24 min
- Vd [1, 5]: 3345.18 ± 472.947 L/kg
- AUC [1, 5]: 1140 ± 390 ng·mL·h
- Tumor weight - inhibition of growth of DU-145 xenografts ([2]; MTX orotate highest dose (42.5 mg/kg/dose) ip q4d): marginal inhibition
- Tumor weight - tumor inhibition ([2]; MTX orotate two low doses (28.3 and 18.9 mg/kg/dose) ip q4d, SC DU-145 xenografts): no effect
- Tumor growth compared with MTX ([2]; ip, equivalent dosages, SC DU-145 xenografts): no significant difference

SMILES: CN(Cc1cnc2nc(N)nc(N)c2n1)c1ccc(C(=O)N[C@@H](CCC(=O)O)C(=O)O)cc1 [Methotrexate, methotrexate]
- Cmax [1, 6]: 3780 ± 636 ng/mL
- clearance [1, 6]: 157 mL/min/kg
- half-life [1, 6]: 26.4 ± 0.6 min
- Tmax ([1]; male, Sprague-Dawley, plasma, IV, 10 mg/kg methotrexate, read-out: Tmax): 6 min
- Vd ([1]; male, Sprague-Dawley, plasma, IV, 10 mg/kg methotrexate, read-out: Vd): 6.12 ± 0.671 L/kg
- bioavailability ([1]; male, Sprague-Dawley, plasma, PO 100 mg/kg vs IV 10 mg/kg methotrexate, dose-normalized AUC ratio): 6%
- Cmax [1, 7]: 51 ± 12 ng/mL
- half-life [1, 7]: 1880 ± 924 min
- Tmax ([1]; male, Sprague-Dawley, plasma, PO, 100 mg/kg methotrexate, read-out: Tmax): 54 ± 36 min
- AUC ([1]; IV, 10 mg/kg methotrexate): 1151 ± 142 ng·mL·h
- Cl ([1]; PO, 100 mg/kg methotrexate): 2537.12 ± 257.27 mL/min/kg
- Vd ([1]; PO, 100 mg/kg methotrexate): 6811.662 ± 3415.946 L/kg
- AUC ([1]; PO, 100 mg/kg methotrexate): 671 ± 70 ng·mL·h
- Bound to plasma proteins [3]: approximately 50%
- Elimination from plasma, gamma half life [3]: 1620 min
- Tumor weight - tumor inhibition ([2]; MTX 27, 18 and 12 mg/kg/dose ip q4d, SC DU-145 xenografts): no effect
